Test results published in patent publication US11154529B2, “Phosphaplatin liquid formulations” (Phosplatin Therapeutics Inc., priority 2016, dated 2021).

Test: Decrease in potency by HPLC of aqueous 1 mg/mL (R,R)-pyrodach-2 solutions in a variety of buffers at ambient temperature
Assay type: physicochemical
Source text: Chem. 47, 7942 (2008)). Thus, simple dissolution of (R,R)-pyrodach-2 affords an acidic solution. […] At higher pHs, where the acid groups of (R,R)-pyrodach-2 are ionized, the solubility of (R,R)-pyrodach-2 increases. In addition, deprotonation of the acid groups in (R,R)-pyrodach-2 dramatically reduces the rate of hydrolytic degradation. […] Thus, controlling the pH of an aqueous solution in the physiological pH range, much less the accurate and reproducible preparation of aqueous (R,R)-pyrodach-2 solutions in this pH range by pH adjustment of an aqueous solution of (R,R)-pyrodach-2 with hydroxide base, is extremely difficult. […] This presents a unique challenge as the pyrophosphate ligand in (R,R)-pyrodach-2 is kinetically labile in solution and can potentially undergo reaction with anions present in many buffers. […] [table]

SMILES: O=P1(O)OP(=O)(O)[O][Pt]2([NH][C@@H]3CCCC[C@H]3[NH]2)[O]1 (stereo partly drawn) [(R,R)-pyrodach-2, (R,R)-trans-1,2-cyclohexanediamine-(dihydrogenpyrophosphato)platinum(II)]
- Decrease in Potency (Acetate 20 mM, pH 5.32, 7 days): 13.5%
- Decrease in Potency (Citric acid 20 mM, pH 6.51, 4 days): 1.9%
- Decrease in Potency (Citric acid 20 mM, pH 6.51, 11 days): 3.9%
- Decrease in Potency (L-arginine 20 mM, pH 7.72, 4 days): 4.0%
- Decrease in Potency (L-arginine 20 mM, pH 7.72, 11 days): 10%
- Decrease in Potency (NH4HCO3 20 mM, pH 7.68, 14 days): 8.0%
- Decrease in Potency (NH4HCO3 50 mM, pH 7.83, 14 days): 18.0%
- Decrease in Potency (NH4HCO3 100 mM, pH 7.94, 14 days): 47.1%
- Decrease in Potency (Triethanolamine 20 mM, pH 7.97, 4 days): 1.9%
- Decrease in Potency (Triethanolamine 20 mM, pH 7.97, 11 days): 5.7%
